The values that follow come from paper PMC9738062, “Selectively Halogenated Flavonolignans—Preparation and Antibacterial Activity” (International Journal of Molecular Sciences, 2022).

Assay [1] deals with multidrug-resistant P. aeruginosa. The assay can be described thus: Sensitization of antibiotic-resistant bacteria (compound plus breakpoint antibiotic concentration). For Effect on viability in combination with imipenem: key: -: no effect (100% viability) was observed up to the highest flavonolignan concentration tested (>40 µM); reversion of resistance: the compound reversed the resistant phenotype to a sensitive one. The format is cell-based, Pseudomonas aeruginosa. Particulars: flavonoid 40 µM, 24 h; for Effect on viability in combination with colistin: colistin 2 mg/L; for Effect on viability in combination with imipenem: imipenem 4 mg/L. The procedure, abridged: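 A multidrug-resistant clinical isolate of P. aeruginosa, obtained from the General University Hospital in Prague and resistant to colistin and imipenem among other drugs, was grown in Mueller–Hinton broth. Flavonoid derivatives at up to 40 µM were combined with EUCAST breakpoint antibiotic concentrations. MIC was determined per ISO 20776-1: 2020, with viability read as A590 nm after 24 h at 37 °C, 150 rpm.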

Assay [2] deals with doxorubicin-resistant human ovarian carcinoma (HOC/DOX). The assay can be described thus: Cytotoxicity (resazurin assay, 72 h). It is filed as cell-based. Particulars: for IC50: Homo sapiens, 72 h, resazurin assay; for SI (selectivity index): ratio IC50 for HDF / IC50 for HOC/DOX. In a few lines:
(§1)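 HDF and HOC/DOX cells in DMEM with 10% FBS were treated 24 h after seeding with 31.25–500 µM compound for 72 h at 37 °C. Viability was read by resazurin fluorescence (560/590 nm) after 2 h; IC50 came from nonlinear regression, and selectivity index = IC50(HDF)/IC50(HOC/DOX).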
A general note: Alamar Blue is a resazurin reagent that responds to reducing activity.

Assay [3] concerns human dermal fibroblasts (HDF). Nature of the assay: Cytotoxicity (resazurin assay, 72 h). It is filed as cell-based. Particulars: Fibroblast. In a few lines:
as §1

Assay [4] deals with lipopolysaccharide-stimulated macrophages (RAW 264.7). Nature of the assay: Inhibition of nitric oxide production (Griess reagent). It is filed as cell-based, murine. Particulars: Mus musculus, RAW264.7; LPS 100 ng/mL, 24 h; highest tested concentration 100 µM; read-out: NO Production IC50. In a few lines: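 RAW 264.7 macrophages seeded at 1 × 10^6 cells/mL and stimulated with bacterial lipopolysaccharide. After 24 h, medium was mixed 1:1 with Griess reagent (0.04 g/mL) and absorbance read at 540 nm after 15 min. Viability by resazurin.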
In general terms: Nitrite, measured by Griess reagent, commonly stands in for NO production.

Assay [5] can be described thus: Ferric reducing antioxidant power (FRAP). Particulars: Fe2+ equivalents. In a few lines: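 ABTS and DPPH radical scavenging gauged antiradical activity. Reducing capacity was measured as reduction of Folin–Ciocalteu reagent and of ferric ions (FRAP).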

A value given as a limit tells only on which side of the number the result lay.

Turning to `O=C1c2c(O)c(Br)c(O)c(Br)c2O[C@H](c2ccc(O)c(O)c2)[C@H]1O` [compound 8, 6,8-dibromotaxifolin], in assay [1], the “Effect on viability in combination with colistin” value (shortened to “Effect … with colistin”) is “-” and the “Effect on viability in combination with imipenem” value (shortened to “Effect … with imipenem”) is “-”. In assay [2], 233 µM corresponded to half-maximal inhibition (IC50) and the “SI (selectivity index)” value was 0.68. Also, inhibition in assay [3] was half-maximal at 158 µM (IC50). Besides, the IC50 in assay [4] is 62.2 ± 4.2 µM. For the same compound, the “FRAP [Fe2+eq]” value in assay [5] stood at 2.20 ± 0.03 Fe2+eq.

As to `COc1cc([C@@H]2Oc3cc([C@H]4Oc5cc(O)cc(O)c5C(=O)[C@@H]4O)ccc3O[C@H]2CO)ccc1O` [3b, silybin B, reference compound], in assay [1], the “Effect … with colistin” value is reported as “-” and the “Effect … with imipenem” value is listed as “-”. Also, in assay [2], it took 202 µM to reach half-maximal inhibition (IC50) and the “SI (selectivity index)” value amounted to 0.41. The compound further displayed an IC50 in assay [3] of 83.3 ± 5.4 µM. Moreover, the IC50 in assay [4] was 55.6 ± 5.5 µM. For the same compound, the “FRAP [Fe2+eq]” value in assay [5] is 0.078 ± 0.004 Fe2+eq.

With `COc1cc([C@@H]2Oc3cc([C@H]4Oc5c(Br)c(O)c(Br)c(O)c5C(=O)[C@@H]4O)ccc3O[C@H]2CO)ccc1O` [compound 14, 6,8-dibromosilybin B], in assay [1], the “Effect … with colistin” value is listed as “-” and the “Effect … with imipenem” value was “-”. Moreover, in assay [2], the IC50 turned out to be 231 µM and the “SI (selectivity index)” value is 0.55. Further, in assay [3], the IC50 turned out to be 128 µM. Further, in assay [4], the IC50 was 90.4 ± 4.6 µM. The “FRAP [Fe2+eq]” value in assay [5] came out at 0.081 ± 0.004 Fe2+eq.

Consider `COc1cc([C@H]2Oc3cc([C@H]4Oc5cc(O)c(Br)c(O)c5C(=O)[C@@H]4O)ccc3O[C@@H]2CO)ccc1O` [compound 11, 6-Bromosilybin A], for which, in assay [1], the “Effect … with colistin” value was “-”. Further, the “Effect … with imipenem” value in assay [1] was “-”. Also, the IC50 is 186 µM in assay [2], 95.6 ± 3 µM in assay [3] and 40 ± 3.4 µM in assay [4]. Besides, the “SI (selectivity index)” value in assay [2] is reported as 0.51. The “FRAP [Fe2+eq]” value in assay [5] was 0.072 ± 0.002 Fe2+eq.

Turning to `O=c1c(O)c(-c2ccc(O)c(O)c2)oc2c(Br)c(O)cc(O)c12` [compound 9, 8-bromoquercetin], in assay [1], the “Effect … with colistin” value is reported as “-” and the “Effect … with imipenem” value is given as “-”. Further, in assay [2], 171 µM corresponded to half-maximal inhibition (IC50) and the “SI (selectivity index)” value is given as 0.77. Besides, the concentration for half-maximal inhibition (IC50) in assay [3] worked out at 132 µM. Moreover, the IC50 in assay [4] is greater than 100 µM. Further, the “FRAP [Fe2+eq]” value in assay [5] came out at 2.44 ± 0.06 Fe2+eq.

Turning to `O=c1c(O)c(-c2ccc(O)c(O)c2)oc2c(Br)c(O)c(Br)c(O)c12` [compound 10, 6,8-dibromoquercetin], in assay [1], the “Effect … with colistin” value was “-” and the “Effect … with imipenem” value is recorded as “-”. Further, in assay [2], the IC50 amounted to 54.2 ± 0.3 µM and the “SI (selectivity index)” value amounted to 1.02. Also, inhibition in assay [3] was half-maximal at 55 ± 1.9 µM (IC50). Besides, the IC50 in assay [4] stood at 40.6 ± 2.6 µM. In addition, the “FRAP [Fe2+eq]” value in assay [5] amounted to 3.31 ± 0.14 Fe2+eq.

By IC50 is commonly meant the concentration that inhibits the measured activity by half.
